# Where two headings read alike, the source gives them in different places.
# Legend:
# ABCB1 pumps = ABCB1 pumps (Homo sapiens, UniProt P08183)
# [1] = test system: multi-drug resistant ovarian carcinoma cell line SK-OV3; test: Cell growth assay on SK-OV3 cells; assay type: cell-based, human; conditions: SK-OV3, ovarian carcinoma
# [2] = test system: multi-drug resistant ovarian cancer cell line NCI/ADR-RES; test: Cell growth assay on NCI/ADR-RES cells; assay type: cell-based; conditions: for IC50: Homo sapiens
# Procedure: (§1) Compositions were tested on CHOP-resistant G3 NHL cells that had been cultivated in RPMI medium for five days. Prior to assay, the cells were counted by haemocytometer and cell concentration standardized to 625,000 cells/ml. Test drugs were solubilized in 100% DMSO and then diluted to final assay concentration with 0.1M phosphate buffered saline (PBS) and a final DMSO concentration of 0.5%. Cells were added to assay plates containing the test drugs (rifabutin+148 ng/ml, 74 ng/ml, 37 ng/ml, or 0 ng/ml doxorubicin) and allowed to incubate for 96 hours at 37° C. and 5% CO2. The metabolic dye rezasurin was added to the wells of the assay plate at a final concentration of 20 μg/ml and the plates were incubated for an additional 24 hours. The plates were then read in a BMG Polarstar plate reader at wavelength (573-605) and the data plotted as OD versus increasing dilutions (i.e. decreasing total amounts) of rifabutin derivative concentration.
# (§2) In these experiments, the following cell lines were used: CHOP-resistant NHL cell line G3, CHOP-sensitive NHL cell line CRL2631, the multi-drug resistant sarcoma cell line MES-SA-Dx5; multi-drug-resistant breast cancer cell line MDA-MB-231, multi-drug resistant ovarian carcinoma cell line SK-OV3, multi-drug resistant ovarian cancer cell line NCI/ADR-RES, drug-sensitive ovarian cancer cell line OVCAR-5, and multi-drug resistant ovarian cancer cell line OVCAR-3.
# (§3) Additional cell lines used include: ovarian cancer OVCAR-8, T lymphoblastoid leukemia MOLT-4, dexamethasone-resistant multiple myeloma MM.1R, myeloid leukemia cells HL-60, osteosarcoma cells U-2 OS, and myeloma RPMI 8226.
# [3] = test system: multi-drug resistant sarcoma cell line MES-SA-Dx5; test: Cell growth assay on MES-SA-Dx5 cells; assay type: cell-based; conditions: MES-SA-Dx5, uterus sarcoma
# Procedure: as §1, §2, §3
# MMP2 = MMP2 secretion ELISA in U2-OS cells; assay type: cell-based; conditions: 5 uM RTI-79, U2-OS cells; reduced from 22.4
# [4] = test system: multi-drug resistant ovarian cancer cell line (NCI/ADR-RES); test: NCI/ADR-RES xenograft efficacy studies in nude mice; assay type: in vivo; conditions: DOXIL 7 mg/kg i.v. + RTI-79 25 mg/kg oral
# Text: In a sixth efficacy study, we generated xenografts of multi-drug resistant ovarian cancer cell line (NCI/ADR-RES) by implantation of NCI/ADR-RES cell xenografts in the left and right flanks of nude mice, resulting in two tumors per mice. […] Tumor size was monitored.
# In a seventh efficacy study, we generated xenografts of multi-drug resistant ovarian cancer cell line (NCI/ADR-RES) by implantation of NCI/ADR-RES cells xenografts in the left and right flanks of nude mice, resulting in two tumors per mouse. […] Tumor size was monitored.
# [5] = test system: primary human fibroblasts; conditions: with and without 2 uM Dox
# VEGF = VEGF secretion ELISA in U2-OS cells; assay type: cell-based; conditions: RTI-79, U2-OS cells; decrease from 998
# ROS in G3 lymphoma cells = test: Intracellular ROS (CellROX, flow cytometry) in G3 cells; assay type: cell-based, human
# Procedure: (§4) Cells were then stained with the fluorescent ROS indicator, CellROX, and subjected to flow cytometry to quantitate total intracellular ROS.
# The electron transport chain (ETC) is known to be a primary generator of ROS in the cell. Most of the ROS is generated by Complexes I and III of the ETC Inhibition of Complex I results in electrons piling up and leaking to react with oxygen to produce ROS.
# (§5) All samples were analyzed at the same time in flow cytometry.
# [6] = test system: ROS in ADR-RES ovarian cells; test: Intracellular ROS (CellROX, flow cytometry) in ADR-RES cells; assay type: cell-based; conditions: 10 uM, 2 hrs
# Text: as §4
# [7] = mice treated with RTI-79 with or without DOX
# Procedure: Swiss mice were dosed with levels equal to and exceeding that of intended doses.
# [8] = test system: ROS in OVCAR8 ovarian cells; test: Intracellular ROS (CellROX, flow cytometry) in OVCAR8 cells; assay type: cell-based; conditions: 10 uM, 2 hrs, degree much less than in resistant lines
# Text: as §4
# [9] = Time to maximal RTI-79 plasma concentration; assay type: in vivo; conditions: after administration
# [10] = test system: drug-sensitive ovarian cancer cell line OVCAR-5; test: Cell growth assay on OVCAR-5 cells; assay type: cell-based; conditions: OVCAR-5, ovarian carcinoma
# Procedure: as §1, §2, §3
# lymphoma cell line G3 = test: Cell growth assay (resazurin fluorescence) on CHOP-resistant G3 NHL cells; assay type: cell-based, human
# Procedure, shortened: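 CHOP-resistant G3 NHL cells grown five days in RPMI medium were counted by haemocytometer and set to 625,000 cells/ml. They were then added to plates holding test drug, first dissolved in 100% DMSO and diluted in 0.1M PBS to 0.5% final DMSO. Plates incubated 96 hours at 37° C. and 5% CO2. Resazurin at 20 μg/ml was added for a further 24 hours, and plates were read on a BMG Polarstar at 573-605.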
# [11] = test system: multi-drug resistant ovarian cancer cell line OVCAR-3; test: Cell growth assay on OVCAR-3 cells; assay type: cell-based; conditions: OVCAR-3, ovarian carcinoma
# [12] = test system: multi-drug-resistant breast cancer cell line MDA-MB-231; test: Cell growth assay on MDA-MB-231 cells; assay type: cell-based; conditions: MDA-MB-231, breast carcinoma
# Procedure: as §1, §2, §3
# calcium in G3 cells = test: Calcium mobilization (Fluo-4AM, flow cytometry); assay type: cell-based, human
# Procedure: MDR/P-gp activity is closely associated with calcium status in the cell, so calcium modulators were tested for effects on ROS. […] Relatively Dox-sensitive lymphoma (CRL2631, 10S, WSU) and ovarian carcinoma (OVCAR8) and more Dox-resistant lymphoma (G3R,10R, WSUR) and ovarian carcinoma (ADR) were treated with 10 uM […] for 2 hrs. […] Cells were co-stained with the cell-permeable red fluorescent ROS indicator, CellROX, and cell-permeable green fluorescent calcium indicator, Fluo-4AM, and then subjected to flow cytometry to quantitate changes in ROS and calcium levels.
# as §5
# [13] = test system: T lymphoblastoid leukemia MOLT-4; test: Cell growth assay on MOLT-4 cells; assay type: cell-based; conditions: for IC50: Homo sapiens
# Procedure: as §1, §3
# [14] = test system: human ovarian cancer cell line SK-OV-3; test: SK-OV-3 xenograft efficacy study in SCID mice; assay type: in vivo; conditions: after 19 days treatment; DOX only 3.3 mg/kg i.v. weekly
# Procedure: In a fifth efficacy study, we generated xenografts of the human ovarian cancer cell line SK-OV-3, a cell line considered doxorubicin-resistant, by bilateral subcutaneous (s.c.) injection of 1×10^7 tumor cells to establish localized tumors in 6-8 week old female SCID mice. Using rifabutin co-administered with DOX, in vivo efficacy was assessed. […] Cycles of Dox or Dox+rifabutin were given once a week for 4 cycles. This cyclical dosing scheme of mouse models has precedent in the literature and is intended to mimic the cycles of DOXIL® (Centocor Ortho Biotech Products, LP, Raritan, N.J.) given in the clinic. Rifabutin was administered on the day of each DOX treatment and by gavage. Mouse body weight and tumor size were monitored.
# [15] = after administration; cited from earlier work
# [16] = test system: G3 CHOP-resistant NHL cells; conditions: fourth study; doxorubicin only group
# Procedure: In a first efficacy study, 6-8 week old female SCID mice (7 mice per treatment arm) were injected subcutaneously on both flanks with 1×10^7 G3 CHOP-resistant NHL cells. Once palpable tumors (about […] size) appeared, therapies (CHOP or CHOP+rifabutin) were started. CHOP was administered at the maximum tolerated dose (cyclophosphamide, 40 mg/kg i.v.; doxorubicin, 3.3 mg/kg i.v.; vincristine, 0.5 mg/kg i.v.; and prednisone, 0.2 mg/kg orally daily for 5 d) weekly for 3 weeks. Rifabutin in an amount of 100 mg/kg was administered on the day of each CHOP treatment and 24-hours later by gavage. Mouse body weight and tumor size were monitored every two days and tumor size measured by caliper. The tumor volume formula (L*W*W)/2 was used to calculate tumor mass.
# A second efficacy study was conducted where mice were treated before the appearance of palpable tumors. In that experiment, one week after transplantation of CHOP-resistant G3 cells, one group (7 mice) was treated with CHOP-only and a second group (8 mice) was treated with CHOP+rifabutin.
# A third study was conducted in which mice injected with CHOP-resistant G3 cells received reduced dosages of CHOP in combination with 33 mg/kg rifabutin. CHOP+rifabutin was administered weekly beginning one week post-inoculation. Control mice were given no CHOP or rifabutin.
# SCID mice were injected with CHOP-resistant G3 cells in the same manner as the first efficacy study above. Treatments began 2 weeks post-inoculation and were administered twice weekly.
# [17] = test system: CHOP-sensitive NHL cell line CRL2631; test: Cell growth assay (resazurin) on CHOP-sensitive CRL2631 NHL cells; assay type: cell-based, human; conditions: CRL2631; for IC50: Homo sapiens
# [18] = therapeutic drug alone, read-out: IC50
# [19] = therapeutic drug with Rifabutin, read-out: IC50 (μM) with Rifabutin
# Sequence of ABCB1 pumps (P08183 whole entry): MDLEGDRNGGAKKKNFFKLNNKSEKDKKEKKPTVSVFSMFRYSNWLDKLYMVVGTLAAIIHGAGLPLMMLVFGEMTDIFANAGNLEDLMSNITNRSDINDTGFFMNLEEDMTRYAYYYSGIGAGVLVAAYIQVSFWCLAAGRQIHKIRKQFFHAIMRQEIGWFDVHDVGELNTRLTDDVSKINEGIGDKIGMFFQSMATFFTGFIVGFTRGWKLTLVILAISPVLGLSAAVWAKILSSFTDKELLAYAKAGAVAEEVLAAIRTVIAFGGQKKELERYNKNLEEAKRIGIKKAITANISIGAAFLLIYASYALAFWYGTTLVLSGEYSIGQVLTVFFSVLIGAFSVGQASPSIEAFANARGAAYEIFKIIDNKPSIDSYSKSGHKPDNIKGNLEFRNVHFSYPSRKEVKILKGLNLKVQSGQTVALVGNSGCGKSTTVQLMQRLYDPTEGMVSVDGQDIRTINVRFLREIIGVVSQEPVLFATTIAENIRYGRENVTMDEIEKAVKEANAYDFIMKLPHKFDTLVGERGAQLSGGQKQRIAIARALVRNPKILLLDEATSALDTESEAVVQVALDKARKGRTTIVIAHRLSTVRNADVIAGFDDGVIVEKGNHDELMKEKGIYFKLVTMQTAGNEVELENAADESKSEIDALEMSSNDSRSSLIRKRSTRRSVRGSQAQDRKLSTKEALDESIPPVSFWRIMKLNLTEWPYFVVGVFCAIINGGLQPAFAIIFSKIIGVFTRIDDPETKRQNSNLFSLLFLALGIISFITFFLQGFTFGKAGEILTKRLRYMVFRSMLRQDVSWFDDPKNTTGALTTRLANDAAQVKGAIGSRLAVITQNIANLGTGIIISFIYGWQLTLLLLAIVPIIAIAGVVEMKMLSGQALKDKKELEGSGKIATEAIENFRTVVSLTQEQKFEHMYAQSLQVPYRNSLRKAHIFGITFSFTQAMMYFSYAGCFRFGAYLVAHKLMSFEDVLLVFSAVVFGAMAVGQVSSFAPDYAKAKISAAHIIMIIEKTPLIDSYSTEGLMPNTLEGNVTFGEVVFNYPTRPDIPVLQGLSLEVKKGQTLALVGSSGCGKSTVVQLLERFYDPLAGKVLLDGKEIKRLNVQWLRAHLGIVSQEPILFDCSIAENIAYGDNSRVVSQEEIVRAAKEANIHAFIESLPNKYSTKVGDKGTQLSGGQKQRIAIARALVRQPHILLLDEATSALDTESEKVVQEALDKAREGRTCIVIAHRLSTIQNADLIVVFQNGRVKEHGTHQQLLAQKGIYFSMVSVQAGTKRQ
compound,measurement,setting,value
"COC1C=COC2(C)Oc3c(C)c(O)c4c(c3C2=O)C2=NC3(CCN(C(=O)OCC(C)C)CC3)NC2=C(NC(=O)C(C)=CC=CC(C)C(O)C(C)C(O)C(C)C(OC(C)=O)C1C)C4=O (stereo not drawn) [RTI-79, 4-deoxy-3,4[2-spiro-[1-(isobutyloxycarbonyl)-piperidin-4-yl]]-(1H)-imidazo-(2,5-dihydro)rifamycin S]",inhibition of efflux pumps,ABCB1 pumps; NCI/ADR-RES and G3 cells,clear inhibition of efflux pumps
same,rank as inhibitor of ABCB1 among rifabutin derivatives,ABCB1 pumps; calcein-AM efflux,strongest inhibitor
same,Magnitude of potentiation in combination with doxorubicin,[1],+++ (potentiation greater than 5 fold increase)
same,Magnitude of potentiation in combination with doxorubicin,"[2]; NCI/ADR-RES, ovarian carcinoma",++ (potentiation between 2.1 to 5 fold increase)
same,Magnitude of potentiation in combination with doxorubicin,[3],++ (potentiation between 2.1 to 5 fold increase)
same,MMP2 secretion,MMP2,10.5 ng/million cells
same,tumor volume lower than in mice receiving only DOXIL,"[4]; seventh study (multiple, large tumors), after 46 days",55%
same,tumor volume reduction during the course of the study,[4]; seventh study,50%
same,tumor volume lower than in mice receiving only DOXIL,"[4]; sixth study, after 41 days",66%
same,comparative cytotoxicity to normal cells,[5],not toxic to normal cells
same,VEGF secretion,VEGF,436 pg/million cells
same,time to first increase in ROS,"ROS in G3 lymphoma cells; 10 uM RTI-79, 0 to 30 minutes",1 min
same,total intracellular ROS,"ROS in G3 lymphoma cells; 10 uM, 2 hrs",induced ROS
same,total intracellular ROS,[6],induced ROS
same,"heart histology (H&E), complete blood count and manual differential",[7],no significant differences
same,total intracellular ROS,[8],induced ROS
same,time to maximal plasma concentration,[9],≤ 3 h
same,Magnitude of potentiation in combination with doxorubicin,[10],+ (potentiation between 1.2 to 2.0 fold increase)
same,Magnitude of potentiation in combination with doxorubicin,"lymphoma cell line G3; G3, lymphoma B cells",++ (potentiation between 2.1 to 5 fold increase)
same,IC50,"lymphoma cell line G3; analog alone, lymphoma cell line G3, read-out: IC50",43 µM
same,IC50,"lymphoma cell line G3; with 1 μM doxorubicin, lymphoma cell line G3, read-out: IC50 (μM) with doxorubicin (1 μM)",1.14 µM
same,Magnitude of potentiation in combination with doxorubicin,[11],+ (potentiation between 1.2 to 2.0 fold increase)
same,Magnitude of potentiation in combination with doxorubicin,[12],+ (potentiation between 1.2 to 2.0 fold increase)
same,calcium mobilization,"calcium in G3 cells; Dox-resistant cells (G3R, 10R, WSUR), 10 uM, 2 hrs, FIG. 41B/41C",induced both ROS and calcium mobilization
same,onset of calcium mobilization,"calcium in G3 cells; G3 cells, 10 uM RTI-79, 0 to 30 minutes",> 15 min
"COc1cccc2c1C(=O)c1c(O)c3c(c(O)c1C2=O)C[C@@](O)(C(=O)CO)C[C@@H]3O[C@H]1C[C@H](N)[C@H](O)[C@H](C)O1 [Doxorubicin, doxorubicin]",IC50,[13]; [18],0.03 µM
same,IC50,[13]; [19],0.01 µM
same,Fold increase in potency,[13]; with vs without Rifabutin,3 fold
same,average tumor volume,[14],587 mm^3
same,IC50,"[2]; NCI/ADR-RES, therapeutic drug alone, ADR-RES, read-out: IC50",> 32 µM
same,IC50,"[2]; NCI/ADR-RES, therapeutic drug with Rifabutin, ADR-RES, read-out: IC50 (μM) with Rifabutin",6.59 µM
same,Fold increase in potency,"[2]; with vs without Rifabutin, ADR-RES",>4.9 fold
same,time of maximal tissue absorption,[15],48 h
same,mean lifespan,[16],34.6
same,median lifespan,[16],33
same,times as likely to die before those treated with doxorubicin+RTI-81,[16],10.37 times
same,IC50,[17]; [18],0.35 µM
same,IC50,[17]; [19],0.12 µM
same,Fold increase in potency,[17]; with vs without Rifabutin,2.9 fold
same,IC50,"lymphoma cell line G3; Homo sapiens, analog alone, lymphoma cell line G3, read-out: IC50",2.36 µM
same,IC50,"lymphoma cell line G3; Homo sapiens, therapeutic drug with Rifabutin, G3, read-out: IC50 (μM) with Rifabutin",0.25 µM
same,Fold increase in potency,"lymphoma cell line G3; with vs without Rifabutin, G3",9.4 fold
